Experimental data published in patent publication US20180141913A1 (EISAI R & D MANAGEMENT CO., LTD., priority 2016, published 2018).

What follows are compounds tested on MCF7 cells with ectopic expression of ERα Y537S/N/C, D538G (assay: In vitro proliferation of wild-type and mutant ER-bearing MCF7 lines with clinical therapies (FIG. 1)).
Assay type: cell-based, human
Description: 48 h post-transfection, virus containing media was filtered and added to MCF7 cells in the presence of 8 µg/ml polybrene overnight. Two days following infection, cells were placed under selection with 10 µg/ml blasticidin for 2 weeks for stable expression.
In parallel, cells were also seeded in a separate 96-well plate (8 wells/cell line, control plate) for which a CTG (CellTiter-Glo® Luminescent Viability Assay, Promega, Cat #G7572) was measured the following day (day 0 reading). The day 0 reading was used for the GI50 calculation at the termination of the experiment. The day following seeding, compounds were added to assay plates. Briefly, a 1:4 serial dilution was prepared in DMSO at 200× final concentration for a total of 10 concentrations (9 dilutions containing compound and one is DMSO only). Serially diluted compounds were pipetted into medium to prepare a compound-medium mix at 10× final concentration. 10 μl of compound-medium mix was added to MCF7-WT and -Y537S cells at 3 wells/concentration (triplicate for each concentration). On day 3, media/compound was removed and replaced with fresh media/compound as described above. On day 6, CTG was measured and compared to day 0 readings from control plate to assess GI50.

SMILES | Proliferation effect in mutant ER-bearing MCF7 lines relative to control lines
C[C@]12CC[C@@H]3c4ccc(O)cc4C[C@@H](CCCCCCCCC[S+]([O-])CCCC(F)(F)C(F)(F)F)[C@H]3[C@@H]1CC[C@@H]2O (stereo partly drawn) [fulvestrant] | phenotypic resistance
O=C(c1ccc(OCCN2CCCCC2)cc1)c1c(-c2ccc(O)cc2)sc2cc(O)ccc12 [raloxifene] | phenotypic resistance
CC/C(=C(\c1ccccc1)c1ccc(OCCN(C)C)cc1)c1ccccc1 [tamoxifen] | phenotypic resistance
